Where no end group is shown, it is not given here.
Assays:
MPO [1] = target: T1, MPO (Homo sapiens, UniProt P05164); assay: MPO inhibitor screening assay kit, chlorination assay; assay type: biochemical; conditions: APF substrate, synthesized peptides
T1 construct: purchased Abnova, Taiwan
T1 sequence (P05164 49-745): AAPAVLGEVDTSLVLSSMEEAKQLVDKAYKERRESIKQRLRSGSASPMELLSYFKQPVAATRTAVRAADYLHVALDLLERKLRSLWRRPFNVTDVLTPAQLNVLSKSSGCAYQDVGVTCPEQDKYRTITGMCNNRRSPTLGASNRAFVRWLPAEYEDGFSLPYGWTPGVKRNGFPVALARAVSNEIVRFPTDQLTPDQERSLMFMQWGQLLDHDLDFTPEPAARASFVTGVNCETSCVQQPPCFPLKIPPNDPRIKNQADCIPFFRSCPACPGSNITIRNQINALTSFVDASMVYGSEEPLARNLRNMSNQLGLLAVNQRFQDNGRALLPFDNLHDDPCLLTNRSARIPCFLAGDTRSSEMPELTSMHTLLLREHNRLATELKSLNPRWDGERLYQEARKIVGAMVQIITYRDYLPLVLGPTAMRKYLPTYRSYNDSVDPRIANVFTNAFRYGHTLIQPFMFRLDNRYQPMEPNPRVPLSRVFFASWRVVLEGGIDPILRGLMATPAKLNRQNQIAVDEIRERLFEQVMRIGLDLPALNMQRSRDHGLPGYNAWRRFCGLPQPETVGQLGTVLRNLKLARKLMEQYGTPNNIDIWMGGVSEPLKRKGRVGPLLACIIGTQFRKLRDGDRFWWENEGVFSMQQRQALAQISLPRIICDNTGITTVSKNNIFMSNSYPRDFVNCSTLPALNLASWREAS
From the text: (§1) The inhibitory effect of peptides on MPO was estimated using an MPO inhibitor screening assay kit (Abnova, Taiwan), which was used to assess in both the peroxidation and chlorination activities of MPO. Peroxidation assay utilizes the peroxidase component of MPO. During the reaction, hydrogen peroxide reacts with 10-acetyl-3,7-dihydroxyphenoxazine (ADHP) to yield resorufin, a highly fluorescent compound. The chlorination assay utilizes non-fluorescent 2-[6-(4-aminophenoxy)-3-oxo-3H-xanthen-9-yl]-benzoic acid (APF), which is selectively cleaved by hypochlorite to produce fluorescein. The 4-aminobenzhydrazide was used as positive control. The MPO inhibitory activity was determined according to the kit instructions.

MPO [2] = target: T1, MPO; assay: MPO inhibitor screening assay kit, peroxidation assay; assay type: biochemical; conditions: ADHP substrate, synthesized peptides
From the text: as §1

Substance	IC50 (MPO [1])	IC50 (MPO [2])
ACGSDGK [ACGSDGK]	32.3 µM	17.9 µM
DASHGHSG	> 500 µM	> 500 µM
DVSDLDAD	296 µM	> 500 µM
GDAFDKA [GDAFDKA]	> 500 µM	> 500 µM
GELALKD [GELALKD]	122 µM	> 500 µM
KFCSGHA [KFCSGHA]	108 µM	40.3 µM
